From ChEMBL document CHEMBL1201862, “PubChem BioAssay data set” (2004)
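Assay format: 96-well plates, 48-hour exposure. GI50: concentration for 50% inhibition of growth.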 Activity calls are given as the source filed them. No stated cut-off is given here; in the data, active = GI50 up to about 1.1 µM and inactive = higher.

Experiments:
Assay in all cases: NCI-60 cell line screen, 48 h
[1] = test system: 786-0
[2] = test system: ACHN
[3] = test system: CCRF-CEM
[4] = test system: EKVX
[5] = test system: MOLT-4
[6] = test system: Malme-3M
[7] = test system: OVCAR-3
[8] = test system: OVCAR-4
[9] = test system: OVCAR-8
[10] = test system: SK-MEL-2
[11] = test system: SNB-75
[12] = test system: TK-10
[13] = test system: CAKI-1
[14] = test system: HOP-62
[15] = test system: RXF 393
[16] = test system: UACC-62

| SMILES | GI50 [1] | GI50 [2] | GI50 [3] | GI50 [4] | GI50 [5] | GI50 [6] | GI50 [7] | GI50 [8] | GI50 [9] | GI50 [10] | GI50 [11] | GI50 [12] | GI50 [13] | GI50 [14] | GI50 [15] | GI50 [16] |
| --- | --- | --- | --- | --- | --- | --- | --- | --- | --- | --- | --- | --- | --- | --- | --- | --- |
| N#Cc1c2nc3ccccc3nc2n2ccc3ccccc3c12 | > 100 µM (inactive) | > 100 µM (inactive) | > 100 µM (inactive) | > 100 µM (inactive) | > 100 µM (inactive) | > 100 µM (inactive) | > 100 µM (inactive) | > 100 µM (inactive) | > 100 µM (inactive) | > 100 µM (inactive) | > 100 µM (inactive) | > 100 µM (inactive) |  |  |  |  |
| CC(=O)N/C(=C\c1cccc([N+](=O)[O-])c1)c1nc2ccc3c(c2[nH]1)C(=O)c1ccccc1C3=O | 27.2 µM (inactive) | 4.37 µM (inactive) | 0.885 µM (active) | 12.7 µM (inactive) | 8.04 µM (inactive) | > 74.8 µM (inactive) | > 100 µM (inactive) | > 65.9 µM (inactive) | 43.6 µM (inactive) | 50.2 µM (inactive) | 21.3 µM (inactive) | > 56 µM (inactive) | 11.7 µM (inactive) | 78 µM (inactive) | 22.8 µM (inactive) | > 49.8 µM (inactive) |
| CCOC(=O)C(=O)C(C#N)c1ccc(Cl)cc1 (stereo not given) | > 100 µM (inactive) | > 100 µM (inactive) |  | > 100 µM (inactive) | > 100 µM (inactive) | > 100 µM (inactive) | > 100 µM (inactive) | > 100 µM (inactive) | > 100 µM (inactive) | > 100 µM (inactive) | > 100 µM (inactive) | > 100 µM (inactive) | > 100 µM (inactive) | > 100 µM (inactive) | > 100 µM (inactive) | > 100 µM (inactive) |
| CCOC(=O)NC(=O)c1c[nH]c(=O)[nH]c1=O | > 100 µM (inactive) | > 100 µM (inactive) | > 100 µM (inactive) | > 100 µM (inactive) | > 100 µM (inactive) | > 100 µM (inactive) | > 100 µM (inactive) | > 100 µM (inactive) | > 100 µM (inactive) | > 100 µM (inactive) | > 100 µM (inactive) | > 100 µM (inactive) | > 100 µM (inactive) | > 100 µM (inactive) |  | > 100 µM (inactive) |
| N#Cc1cccc(/C=N/N/C(N)=N/O)c1 | > 100 µM (inactive) | 31.7 µM (inactive) | 57.7 µM (inactive) | 9.18 µM (inactive) |  | 85.1 µM (inactive) | > 100 µM (inactive) | 20.9 µM (inactive) | 78.3 µM (inactive) | 72.6 µM (inactive) | 14.8 µM (inactive) | 37.6 µM (inactive) | 17.1 µM (inactive) | 92.7 µM (inactive) | 57.7 µM (inactive) | 13 µM (inactive) |
| CC1=C(CO)C(=O)OC(C(C)C2CCC3C4CC5OC56C(O)C(N5CC5)=CC(=O)C6(C)C4CCC23C)C1 (stereo not given) | 5.05 µM (inactive) | 5.74 µM (inactive) | 2.61 µM (inactive) | 12.2 µM (inactive) | 1.95 µM (inactive) | 12.6 µM (inactive) | 3.43 µM (inactive) | 7.19 µM (inactive) | 2.2 µM (inactive) | 5.73 µM (inactive) | 4.01 µM (inactive) | 10.1 µM (inactive) |  | 18.5 µM (inactive) | 12 µM (inactive) | 10.5 µM (inactive) |
| CCOC(=O)CC(=O)ON(C)C(C)=O | > 100 µM (inactive) | > 100 µM (inactive) | > 100 µM (inactive) | > 100 µM (inactive) | > 100 µM (inactive) | > 100 µM (inactive) | > 100 µM (inactive) | > 100 µM (inactive) | > 100 µM (inactive) | > 100 µM (inactive) |  | > 100 µM (inactive) | > 100 µM (inactive) | > 100 µM (inactive) |  | > 100 µM (inactive) |
| C[Si](C)(C)C(Sc1ccccc1)(Sc1ccccc1)Sc1ccccc1 | > 100 µM (inactive) | 43 µM (inactive) | 24 µM (inactive) | 95.5 µM (inactive) | 4.28 µM (inactive) |  |  | > 100 µM (inactive) | > 100 µM (inactive) | 25.9 µM (inactive) | 40.5 µM (inactive) | > 100 µM (inactive) | > 100 µM (inactive) |  | 29.4 µM (inactive) | 26.4 µM (inactive) |
| CC(C)N(C(=O)c1cccc(C(=O)N(C(C)C)C(C)C)c1)C(C)C | > 100 µM (inactive) | > 100 µM (inactive) | > 100 µM (inactive) | > 100 µM (inactive) | > 100 µM (inactive) | > 100 µM (inactive) | > 100 µM (inactive) | > 100 µM (inactive) | > 100 µM (inactive) | > 100 µM (inactive) | > 100 µM (inactive) | > 100 µM (inactive) | > 100 µM (inactive) | > 100 µM (inactive) |  | > 100 µM (inactive) |
